# Activity calls are given as the source filed them. The rule behind the calls is not given here.
# Experiments:
# HCT-116 [1] = assay: Cytotoxicity against human HCT116 cells pretreated with Mg2+ followed by compound addition up to 5 uM measured after 72 hrs by MTT assay; format: functional, cell-based
# [2] = Antiproliferative activity against taxol-resistant human HCT8/T cells after 72 hrs by MTT assay; format: functional; conditions: HCT-8, 72 h
# HCT-116 [3] = assay: Disruption of mitochondrial membrane potential in human HCT116 cells assessed as collapse of mitochondrial membrane potential at 5 uM after 72 hrs by JC1 staining-based flow cytometry method (reference value: […]); format: functional
# HCT-116 [4] = assay: Induction of lipid peroxidation in human HCT116 cells assessed as increase in MDA levels up to 5 uM; format: functional
# Mus musculus [5] = assay: Toxicity in BALB/c nude mouse xenografted with human HCT116 cells assessed as abnormality in liver at 10 to 20 mg/kg, iv administered once per day by hematoxylin and eosin staining-based microscopic method; format: organism-based; conditions: in vivo
# [6] = Antiproliferative activity against human HBMEC cells after 72 hrs by MTT assay; format: cell-based
# L02 = assay: Antiproliferative activity against human LO2 cells after 72 hrs by MTT assay; format: cell-based; conditions: L02, 72 h
# HCT-116 [7] = assay: Induction of intracellular ROS generation in human HCT116 cells at 1.25 uM after 72 hrs by DCF-DA-dye based fluorescence microscopy (reference value: 2.74%); format: functional
# HCT-116 [8] = assay: Cytotoxicity against human HCT116 cells pretreated with Al3+ followed by compound addition up to 5 uM measured after 72 hrs by MTT assay; format: functional, cell-based
# HCT-116 [9] = assay: Cytotoxicity in human HCT116 cells pretreated with Fe2+ followed by compound addition up to 5 uM measured after 72 hrs by MTT assay; format: functional, cell-based
# BEAS-2B = assay: Antiproliferative activity against human BEAS2B cells after 72 hrs by MTT assay; format: functional, cell-based
# HCT-116 [10] = assay: Induction of apoptosis in human HCT116 cells assessed as late apoptotic cells at 0.31 uM after 72 hrs by Annexin V-FITC/propidium iodide staining-based flow cytometric analysis (reference value: 1.08%); format: functional
# HCT-116 [11] = assay: Disruption of mitochondrial membrane potential in human HCT116 cells assessed as intact mitochondrial membrane at 0.31 uM after 72 hrs by JC1 staining-based flow cytometry method (reference value: 0.33%); format: functional
# HCT-116 [12] = assay: Induction of apoptosis in human HCT116 cells assessed as viable cells at 1.25 uM after 72 hrs by Annexin V-FITC/propidium iodide staining-based flow cytometric analysis (reference value: 92.86%); format: functional; conditions: HCT-116, 72 h, read-out: Activity
# [13] = Antiproliferative activity against human CCD-841 cells after 72 hrs by MTT assay; format: cell-based; conditions: CCD-841, 72 h
# HaCaT = assay: Antiproliferative activity against human HaCaT cells after 72 hrs by MTT assay; format: cell-based
# HCT-116 [14] = assay: Cytotoxicity against human HCT116 cells pretreated with Cu2+ followed by compound addition up to 5 uM measured after 72 hrs by MTT assay; format: functional, cell-based
# HCT-8 = assay: Antiproliferative activity against human HCT8 cells after 72 hrs by MTT assay; format: functional, cell-based; conditions: HCT-8, 72 h
# HCT-116 [15] = assay: Antitumor activity against human HCT116 cells xenografted in BALB/c nude mouse assessed as decrease in tumor size at 20 mg/kg, iv administered once per day for 14 days and measured every 2 days; format: functional; design: scale not given: the % may be the effect or the level left
# MGC-803 = assay: Antiproliferative activity against human MGC803 cells after 72 hrs by MTT assay; format: functional, cell-based; conditions: MGC-803, 72 h
# PC-3 = assay: Antiproliferative activity against p53 deficient human PC3 cells at 0.31 to 5 uM after 72 hrs by MTT assay; format: functional, cell-based
# HCT-116 [16] = assay: Induction of apoptosis in human HCT116 cells assessed as late apoptotic cells at 1.25 uM after 72 hrs by Annexin V-FITC/propidium iodide staining-based flow cytometric analysis (reference value: 1.08%); format: functional
# HCT-116 [17] = assay: Induction of apoptosis in human HCT116 cells after 72 hrs by Annexin V-FITC/propidium iodide staining-based flow cytometric analysis; format: functional, cell-based
# A549 = assay: Antiproliferative activity against human A549 cells after 72 hrs by MTT assay; format: functional, cell-based; conditions: A549, 72 h
# [18] = target: Cellular tumor antigen p53 (Homo sapiens) (UniProt P04637); assay: Activation of p53 in human HCT116 cells assessed as downregulation of Bcl2 expression up to 5 uM after 48 hrs by Western blot analysis; format: cell-based
# HCT-116 [19] = assay: Induction of apoptosis in human HCT116 cells assessed as viable cells at 0.31 uM after 72 hrs by Annexin V-FITC/propidium iodide staining-based flow cytometric analysis (reference value: 92.86%); format: functional; conditions: HCT-116, 72 h, read-out: Activity
# MCF7 = assay: Antiproliferative activity against human MCF7 cells after 72 hrs by MTT assay; format: functional, cell-based; conditions: MCF7, 72 h
# Mus musculus [20] = assay: Toxicity in BALB/c nude mouse xenografted with human HCT116 cells assessed as abnormality in kidney at 10 to 20 mg/kg, iv administered once per day by hematoxylin and eosin staining-based microscopic method; format: organism-based; conditions: in vivo
# HCT-116 [21] = assay: Induction of apoptosis in human HCT116 cells assessed as formation of apoptotic bodies at 0.31 to 5 uM after 24 hrs by DAPI staining-based fluorescence microscopic method; format: functional, cell-based
# Mus musculus [22] = assay: Toxicity in BALB/c nude mouse xenografted with human HCT116 cells assessed as change in body weight at 10 to 20 mg/kg, iv administered once per day for 14 days and measured every 2 days; format: organism-based; conditions: in vivo
# HCT-116 [23] = assay: Disruption of mitochondrial membrane potential in human HCT116 cells assessed as intact mitochondrial membrane at 1.25 uM after 72 hrs by JC1 staining-based flow cytometry method (reference value: 0.33%); format: functional
# HCT-116 [24] = assay: Induction of apoptosis in human HCT116 cells assessed as necrotic cells at 5 uM after 72 hrs by Annexin V-FITC/propidium iodide staining-based flow cytometric analysis (reference value: 0.76%); format: functional
# HCT-116 [25] = assay: Induction of apoptosis in human HCT116 cells assessed as early apoptotic cells at 1.25 uM after 72 hrs by Annexin V-FITC/propidium iodide staining-based flow cytometric analysis (reference value: 5.30%); format: functional
# HCT-116 [26] = assay: Induction of apoptosis in human HCT116 cells assessed as necrotic cells at 0.31 uM after 72 hrs by Annexin V-FITC/propidium iodide staining-based flow cytometric analysis (reference value: 0.76%); format: functional
# HCT-116 [27] = assay: Effect on caspase-8 expression in human HCT116 cells up to 5 uM after 48 hrs by Western blot analysis; format: functional, cell-based
# HCT-116 [28] = assay: Cytotoxicity in human HCT116 cells pretreated with Fe3+ followed by compound addition up to 5 uM measured after 72 hrs by MTT assay; format: functional, cell-based
# HCT-116 [29] = assay: Induction of apoptosis in human HCT116 cells assessed as early apoptotic cells at 5 uM after 72 hrs by Annexin V-FITC/propidium iodide staining-based flow cytometric analysis (reference value: 5.30%); format: functional
# HCT-116 [30] = assay: Induction of intracellular ROS generation in human HCT116 cells after 72 hrs by DCF-DA-dye based fluorescence microscopy; format: functional, cell-based
# HCT-116 [31] = assay: Induction of apoptosis in human HCT116 cells assessed as viable cells at 5 uM after 72 hrs by Annexin V-FITC/propidium iodide staining-based flow cytometric analysis (reference value: 92.86%); format: functional; conditions: HCT-116, 72 h, read-out: Activity
# Cellular tumor antigen p53 (Homo sapiens), sequence (P04637 whole entry, looked up): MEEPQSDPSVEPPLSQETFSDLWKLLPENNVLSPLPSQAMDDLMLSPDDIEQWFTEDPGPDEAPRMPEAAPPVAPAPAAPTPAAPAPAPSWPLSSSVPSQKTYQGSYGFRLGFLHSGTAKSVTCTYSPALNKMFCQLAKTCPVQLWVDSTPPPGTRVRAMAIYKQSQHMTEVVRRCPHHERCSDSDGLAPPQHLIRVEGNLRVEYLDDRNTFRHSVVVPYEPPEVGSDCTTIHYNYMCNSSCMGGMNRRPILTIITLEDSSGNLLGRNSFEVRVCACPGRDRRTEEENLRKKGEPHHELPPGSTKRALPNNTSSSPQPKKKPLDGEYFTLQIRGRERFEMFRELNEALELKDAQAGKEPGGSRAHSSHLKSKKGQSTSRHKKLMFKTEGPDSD
smiles,measurement,setting,value
CC(=O)N[C@H]1[C@H](O[C@H]2CC[C@]3(C)[C@H]4CC=C5[C@@H]6CC(C)(C)CC[C@]6(C(=O)OCc6cn(-c7cccc(C(C)=O)c7)nn6)CC[C@@]5(C)[C@]4(C)CC[C@H]3C2(C)C)O[C@H](CO[C@@H]2OC[C@H](O)[C@H](O)[C@@H]2O)[C@@H](O)[C@@H]1O,Activity,HCT-116 [1],Active
same,IC50,[2],6.05 µM
same,Activity,HCT-116 [3],59.87%
same,fold change (FC),HCT-116 [4],>2
same,Activity,Mus musculus [5],Non-Toxic
same,IC50,[6],32.2 µM
same,IC50,L02,33.2 µM
same,Activity,HCT-116 [7],20.35%
same,Activity,HCT-116 [8],Active
same,Activity,HCT-116 [9],Active
same,IC50,BEAS-2B,20.2 µM
same,Activity,HCT-116 [10],12.51%
same,Activity,HCT-116 [11],10.97%
same,viability at 1.25 µM,HCT-116 [12],65.1%
same,IC50,[13],27.8 µM
same,IC50,HaCaT,37.1 µM
same,Activity,HCT-116 [14],Active
same,IC50,HCT-8,6.78 µM
same,Activity,HCT-116 [15],71.8%
same,IC50,MGC-803,7.35 µM
same,Activity,PC-3,inactive
same,Activity,HCT-116 [16],26.18%
same,Activity,HCT-116 [17],Dose-dependent effect
same,IC50,A549,9.18 µM
same,Activity,[18],Active
same,viability at 0.31 µM,HCT-116 [19],78.9%
same,IC50,MCF7,10.5 µM
same,Activity,Mus musculus [20],Non-Toxic
same,Activity,HCT-116 [21],Active
same,Activity,Mus musculus [22],Non-Toxic
same,Activity,HCT-116 [23],22.64%
same,Activity,HCT-116 [24],1.86%
same,Activity,HCT-116 [25],3.42%
same,Activity,HCT-116 [26],2.62%
same,Activity,HCT-116 [27],inactive
same,Activity,HCT-116 [28],Active
same,Activity,HCT-116 [29],39.27%
same,Activity,HCT-116 [30],Dose-dependent effect
same,viability at 5 µM,HCT-116 [31],38.5%
